# Assay results published in ChEMBL document CHEMBL4811281, “Identification of aryl sulfonamides as novel and potent inhibitors of NaV1.5” (Bioorg Med Chem Lett, 2021).
# Activity calls are given as the source filed them. No cut-off for these calls is given here.
# Assays:
# [1] = target: T1, Sodium channel protein type 5 subunit alpha (Homo sapiens, UniProt Q14524); assay: Inhibition of human Nav1.5 by automated voltage clamp electrophysiology
# [2] = Intrinsic clearance in human liver microsomes; assay type: ADME, Microsome; conditions: read-out: CLH
# [3] = Intrinsic clearance in mouse liver microsomes; assay type: ADME, Microsome; conditions: read-out: CLH
# [4] = target: Cytochrome P450 1A2 (Homo sapiens, UniProt P05177); assay: Inhibition of CYP1A2 (unknown origin); assay type: ADME
# [5] = target: Cytochrome P450 3A4 (Homo sapiens, UniProt P08684); assay: Inhibition of CYP3A4 (unknown origin); assay type: ADME
# [6] = target: Cytochrome P450 2C19 (Homo sapiens, UniProt P33261); assay: Inhibition of CYP2C19 (unknown origin); assay type: ADME
# Cytochrome P450 2C19, sequence (P33261 whole entry): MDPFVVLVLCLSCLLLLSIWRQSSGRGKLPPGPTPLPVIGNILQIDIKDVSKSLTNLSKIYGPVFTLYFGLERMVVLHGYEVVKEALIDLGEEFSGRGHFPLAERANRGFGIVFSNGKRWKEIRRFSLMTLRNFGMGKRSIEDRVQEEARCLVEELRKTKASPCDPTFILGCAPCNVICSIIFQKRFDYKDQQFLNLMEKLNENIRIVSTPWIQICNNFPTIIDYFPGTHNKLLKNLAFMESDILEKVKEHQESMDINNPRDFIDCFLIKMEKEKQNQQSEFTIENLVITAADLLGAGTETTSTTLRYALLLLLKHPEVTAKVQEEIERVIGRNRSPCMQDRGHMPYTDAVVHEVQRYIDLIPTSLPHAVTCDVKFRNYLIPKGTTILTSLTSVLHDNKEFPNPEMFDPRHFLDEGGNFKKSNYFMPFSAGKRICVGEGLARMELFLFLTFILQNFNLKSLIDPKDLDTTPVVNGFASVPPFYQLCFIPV
# [7] = target: Cytochrome P450 2D6 (Homo sapiens, UniProt P10635); assay: Inhibition of CYP2D6 (unknown origin); assay type: ADME
# Cytochrome P450 2D6, sequence (P10635 whole entry): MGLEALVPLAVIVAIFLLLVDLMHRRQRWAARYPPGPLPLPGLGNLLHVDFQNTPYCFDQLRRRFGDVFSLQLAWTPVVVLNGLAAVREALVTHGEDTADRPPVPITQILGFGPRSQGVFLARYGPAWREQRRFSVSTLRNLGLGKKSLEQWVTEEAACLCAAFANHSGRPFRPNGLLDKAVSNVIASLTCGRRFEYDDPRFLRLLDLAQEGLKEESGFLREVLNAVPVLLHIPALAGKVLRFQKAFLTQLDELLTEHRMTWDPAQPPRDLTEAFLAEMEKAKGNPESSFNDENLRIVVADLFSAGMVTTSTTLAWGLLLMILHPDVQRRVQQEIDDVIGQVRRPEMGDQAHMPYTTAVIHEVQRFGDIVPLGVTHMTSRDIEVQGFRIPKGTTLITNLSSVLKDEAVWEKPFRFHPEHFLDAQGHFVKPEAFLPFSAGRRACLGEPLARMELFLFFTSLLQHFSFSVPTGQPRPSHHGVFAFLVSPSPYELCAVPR
# [8] = target: Cytochrome P450 2C9 (Homo sapiens, UniProt P11712); assay: Inhibition of CYP2C9 (unknown origin); assay type: ADME
# Cytochrome P450 2C9, sequence (P11712 whole entry): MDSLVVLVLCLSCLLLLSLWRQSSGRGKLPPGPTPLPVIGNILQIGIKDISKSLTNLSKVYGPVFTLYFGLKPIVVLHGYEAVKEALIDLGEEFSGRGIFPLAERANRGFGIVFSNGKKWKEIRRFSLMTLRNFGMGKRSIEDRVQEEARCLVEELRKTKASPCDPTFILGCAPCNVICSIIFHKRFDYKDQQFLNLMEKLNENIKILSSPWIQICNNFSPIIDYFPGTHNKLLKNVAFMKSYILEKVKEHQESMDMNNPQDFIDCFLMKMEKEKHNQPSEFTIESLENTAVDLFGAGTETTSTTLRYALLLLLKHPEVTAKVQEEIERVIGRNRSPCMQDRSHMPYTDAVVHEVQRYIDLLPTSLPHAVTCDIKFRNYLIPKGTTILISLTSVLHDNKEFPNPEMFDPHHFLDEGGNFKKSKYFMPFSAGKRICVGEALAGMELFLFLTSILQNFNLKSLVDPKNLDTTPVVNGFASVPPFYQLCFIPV
# [9] = Clearance in FVB mouse at 1 mg/kg, iv; assay type: ADME, organism-based; conditions: in vivo
# [10] = Half life in FVB mouse at 1 mg/kg, iv; assay type: ADME, organism-based; conditions: in vivo
# [11] = Volume of distribution at steady state in FVB mouse at 1 mg/kg, iv; assay type: ADME, organism-based; conditions: in vivo, read-out: Vdss
# [12] = AUC in FVB mouse at 1 mg/kg, iv; assay type: ADME, organism-based; parameters: dose 1 mg/kg; conditions: in vivo
# [13] = Cmax in FVB mouse at 10 mg/kg, po; assay type: ADME, organism-based; parameters: route oral, dose 10 mg/kg; conditions: in vivo
# [14] = Half life in FVB mouse at 10 mg/kg, po; assay type: ADME, organism-based; conditions: in vivo
# [15] = AUC in FVB mouse at 10 mg/kg, po; assay type: ADME, organism-based; parameters: dose 10 mg/kg; conditions: in vivo
# [16] = Oral bioavailability in FVB mouse at 10 mg/kg; assay type: ADME, organism-based; conditions: in vivo
# [17] = target: T1, Sodium channel protein type 5 subunit alpha; assay: Displacement of [3H]BNZA from Nav1.5 (unknown origin)
# [18] = Drug uptake in FVB mouse brain at 10 mg/kg, po measured after 2 hrs; assay type: ADME, organism-based; conditions: read-out: Drug uptake
# [19] = Plasma concentration in FVB mouse at 10 mg/kg, po measured after 2 hrs; assay type: ADME, organism-based
# [20] = Ratio of drug level in brain to plasma in FVB mouse at 10 mg/kg, po measured after 2 hrs; assay type: ADME, organism-based; conditions: read-out: BPR
# [21] = Inhibition of human Nav1.5 VSD4 F1759A mutant by automated voltage clamp electrophysiology
# [22] = Inhibition of human Nav1.5 VSD4 R1631A mutant by automated voltage clamp electrophysiology
# [23] = target: Potassium voltage-gated channel subfamily B member 1 (Homo sapiens) (UniProt Q14721); assay: Inhibition of Kv2.1 (unknown origin) by voltage clamp method
# [24] = target: Potassium voltage-gated channel subfamily A member 5 (Homo sapiens) (UniProt P22460); assay: Inhibition of Kv1.5 (unknown origin) by voltage clamp method
# Potassium voltage-gated channel subfamily A member 5 (Homo sapiens), sequence (P22460 whole entry): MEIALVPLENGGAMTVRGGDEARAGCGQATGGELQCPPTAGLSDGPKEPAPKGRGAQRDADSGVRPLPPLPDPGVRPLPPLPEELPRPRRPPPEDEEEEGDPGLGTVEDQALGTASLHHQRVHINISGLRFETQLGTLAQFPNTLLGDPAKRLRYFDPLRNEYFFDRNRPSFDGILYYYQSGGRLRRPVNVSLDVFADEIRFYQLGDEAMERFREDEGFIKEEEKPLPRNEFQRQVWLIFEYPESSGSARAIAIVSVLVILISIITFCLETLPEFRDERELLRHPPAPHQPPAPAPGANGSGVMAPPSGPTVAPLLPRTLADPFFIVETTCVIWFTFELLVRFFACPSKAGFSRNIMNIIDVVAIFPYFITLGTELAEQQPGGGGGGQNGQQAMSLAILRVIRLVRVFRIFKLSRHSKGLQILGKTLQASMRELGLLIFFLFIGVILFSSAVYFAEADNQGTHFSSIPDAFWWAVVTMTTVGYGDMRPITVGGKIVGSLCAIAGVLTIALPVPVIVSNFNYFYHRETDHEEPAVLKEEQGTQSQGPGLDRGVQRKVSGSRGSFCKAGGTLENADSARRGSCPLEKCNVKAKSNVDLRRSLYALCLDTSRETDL
# [25] = target: Voltage-gated potassium channel KCNC2 (Homo sapiens) (UniProt Q96PR1); assay: Inhibition of Kv3.2 (unknown origin) by voltage clamp method
# [26] = target: Potassium/sodium hyperpolarization-activated cyclic nucleotide-gated channel 2 (Homo sapiens) (UniProt Q9UL51); assay: Inhibition of HCN2 (unknown origin) by voltage clamp method
# Potassium/sodium hyperpolarization-activated cyclic nucleotide-gated channel 2 (Homo sapiens), sequence (Q9UL51 whole entry): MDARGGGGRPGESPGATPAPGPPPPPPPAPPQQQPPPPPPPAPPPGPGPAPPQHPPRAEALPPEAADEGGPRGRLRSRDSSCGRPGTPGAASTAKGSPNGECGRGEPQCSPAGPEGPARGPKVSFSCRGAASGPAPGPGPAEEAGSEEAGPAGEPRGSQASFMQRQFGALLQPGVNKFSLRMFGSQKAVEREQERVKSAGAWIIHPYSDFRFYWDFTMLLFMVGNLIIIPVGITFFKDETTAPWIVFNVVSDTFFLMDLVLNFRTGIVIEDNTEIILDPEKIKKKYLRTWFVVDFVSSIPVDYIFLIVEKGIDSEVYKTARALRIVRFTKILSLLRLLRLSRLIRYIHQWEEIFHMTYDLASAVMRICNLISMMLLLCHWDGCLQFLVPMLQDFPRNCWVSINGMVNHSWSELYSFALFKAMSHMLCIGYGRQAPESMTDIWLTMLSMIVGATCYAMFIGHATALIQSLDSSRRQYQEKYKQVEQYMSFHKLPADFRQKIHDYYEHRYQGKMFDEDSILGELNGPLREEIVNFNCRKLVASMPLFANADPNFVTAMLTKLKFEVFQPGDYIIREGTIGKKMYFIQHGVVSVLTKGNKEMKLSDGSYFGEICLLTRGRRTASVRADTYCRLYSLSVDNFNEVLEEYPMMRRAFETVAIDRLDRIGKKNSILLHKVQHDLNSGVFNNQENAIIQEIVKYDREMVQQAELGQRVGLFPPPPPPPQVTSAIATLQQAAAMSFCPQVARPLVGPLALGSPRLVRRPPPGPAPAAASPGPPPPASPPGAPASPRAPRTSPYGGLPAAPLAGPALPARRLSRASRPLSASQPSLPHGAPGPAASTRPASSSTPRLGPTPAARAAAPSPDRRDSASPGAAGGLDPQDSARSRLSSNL
# [27] = target: Potassium/sodium hyperpolarization-activated cyclic nucleotide-gated channel 4 (Homo sapiens) (UniProt Q9Y3Q4); assay: Inhibition of HCN4 (unknown origin) by voltage clamp method
# [28] = species on record: Homo sapiens; assay: Inhibition of Kv4.2/KChIP2.2 (unknown origin) by voltage clamp method
# [29] = target: Voltage-dependent N-type calcium channel subunit alpha-1B (Homo sapiens) (UniProt Q00975); assay: Inhibition of Cav2.2 (unknown origin) by voltage clamp assay
# [30] = target: Voltage-dependent T-type calcium channel subunit alpha-1G (Homo sapiens) (UniProt O43497); assay: Inhibition of Cav3.1 (unknown origin) by voltage clamp assay
# [31] = target: Voltage-dependent T-type calcium channel subunit alpha-1I (Homo sapiens) (UniProt Q9P0X4); assay: Inhibition of Cav3.3 (unknown origin) by voltage clamp assay
# [32] = species on record: Homo sapiens; assay: Inhibition of GABA channel (unknown origin) by voltage clamp assay
# [33] = target: Transient receptor potential cation channel subfamily V member 1 (Homo sapiens) (UniProt Q8NER1); assay: Inhibition of TRPV1 (unknown origin) by voltage clamp assay
# [34] = target: 5-hydroxytryptamine receptor 3A (Homo sapiens) (UniProt P46098); assay: Inhibition of 5HT3A channel (unknown origin) by voltage clamp assay
# [35] = species on record: Homo sapiens; assay: Selectivity ratio of IC50 for inhibition of human Nav1.5 expressed in HEK293 cells assessed as inhibition of peak current to IC50 for inhibition of human Nav1.5 expressed in HEK293 cells assessed as inhibition of late current; assay type: cell-based
# [36] = system: iPSC-CM; assay: Anti-arrythmic activity in human iPSC-derived cardiomyocytes assessed as AP amplitude at 100 nM in presence of 15 to 30 nM ATX-II by current clamp analysis; assay type: functional, cell-based
# [37] = species on record: Homo sapiens; assay: Selectivity ratio of IC50 for human Nav1.1 to IC50 for human Nav1.5
# [38] = species on record: Homo sapiens; assay: Selectivity ratio of IC50 for human Nav1.2 to IC50 for human Nav1.5
# [39] = species on record: Homo sapiens; assay: Selectivity ratio of IC50 for human Nav1.6 to IC50 for human Nav1.5
# [40] = system: iPSC-CM; assay: Anti-arrythmic activity in human iPSC-derived cardiomyocytes assessed as maximum diastolic membrane potential at 100 nM in presence of 15 to 30 nM ATX-II by current clamp analysis; assay type: functional, cell-based
# [41] = species on record: Homo sapiens; assay: Selectivity ratio of IC50 for inhibition of human Nav1.5 VSD4 F1759A mutant to IC50 for inhibition of human Nav1.5 by automated voltage clamp electrophysiology
# [42] = Inhibition of human Nav1.5 VSD4 R1622A mutant by automated voltage clamp electrophysiology
# [43] = Inhibition of human Nav1.5 VSD4 R1625A mutant by automated voltage clamp electrophysiology
# [44] = Inhibition of human Nav1.5 VSD4 R1628A mutant by automated voltage clamp electrophysiology
# [45] = Inhibition of human Nav1.5 VSD4 R1634A mutant by automated voltage clamp electrophysiology
# [46] = target: Sodium channel protein type 5 subunit alpha (Homo sapiens, UniProt Q14524, R814A); assay: Inhibition of human Nav1.5 VSD2 R814A mutant by automated voltage clamp electrophysiology
# T1 sequence (Q14524 whole entry): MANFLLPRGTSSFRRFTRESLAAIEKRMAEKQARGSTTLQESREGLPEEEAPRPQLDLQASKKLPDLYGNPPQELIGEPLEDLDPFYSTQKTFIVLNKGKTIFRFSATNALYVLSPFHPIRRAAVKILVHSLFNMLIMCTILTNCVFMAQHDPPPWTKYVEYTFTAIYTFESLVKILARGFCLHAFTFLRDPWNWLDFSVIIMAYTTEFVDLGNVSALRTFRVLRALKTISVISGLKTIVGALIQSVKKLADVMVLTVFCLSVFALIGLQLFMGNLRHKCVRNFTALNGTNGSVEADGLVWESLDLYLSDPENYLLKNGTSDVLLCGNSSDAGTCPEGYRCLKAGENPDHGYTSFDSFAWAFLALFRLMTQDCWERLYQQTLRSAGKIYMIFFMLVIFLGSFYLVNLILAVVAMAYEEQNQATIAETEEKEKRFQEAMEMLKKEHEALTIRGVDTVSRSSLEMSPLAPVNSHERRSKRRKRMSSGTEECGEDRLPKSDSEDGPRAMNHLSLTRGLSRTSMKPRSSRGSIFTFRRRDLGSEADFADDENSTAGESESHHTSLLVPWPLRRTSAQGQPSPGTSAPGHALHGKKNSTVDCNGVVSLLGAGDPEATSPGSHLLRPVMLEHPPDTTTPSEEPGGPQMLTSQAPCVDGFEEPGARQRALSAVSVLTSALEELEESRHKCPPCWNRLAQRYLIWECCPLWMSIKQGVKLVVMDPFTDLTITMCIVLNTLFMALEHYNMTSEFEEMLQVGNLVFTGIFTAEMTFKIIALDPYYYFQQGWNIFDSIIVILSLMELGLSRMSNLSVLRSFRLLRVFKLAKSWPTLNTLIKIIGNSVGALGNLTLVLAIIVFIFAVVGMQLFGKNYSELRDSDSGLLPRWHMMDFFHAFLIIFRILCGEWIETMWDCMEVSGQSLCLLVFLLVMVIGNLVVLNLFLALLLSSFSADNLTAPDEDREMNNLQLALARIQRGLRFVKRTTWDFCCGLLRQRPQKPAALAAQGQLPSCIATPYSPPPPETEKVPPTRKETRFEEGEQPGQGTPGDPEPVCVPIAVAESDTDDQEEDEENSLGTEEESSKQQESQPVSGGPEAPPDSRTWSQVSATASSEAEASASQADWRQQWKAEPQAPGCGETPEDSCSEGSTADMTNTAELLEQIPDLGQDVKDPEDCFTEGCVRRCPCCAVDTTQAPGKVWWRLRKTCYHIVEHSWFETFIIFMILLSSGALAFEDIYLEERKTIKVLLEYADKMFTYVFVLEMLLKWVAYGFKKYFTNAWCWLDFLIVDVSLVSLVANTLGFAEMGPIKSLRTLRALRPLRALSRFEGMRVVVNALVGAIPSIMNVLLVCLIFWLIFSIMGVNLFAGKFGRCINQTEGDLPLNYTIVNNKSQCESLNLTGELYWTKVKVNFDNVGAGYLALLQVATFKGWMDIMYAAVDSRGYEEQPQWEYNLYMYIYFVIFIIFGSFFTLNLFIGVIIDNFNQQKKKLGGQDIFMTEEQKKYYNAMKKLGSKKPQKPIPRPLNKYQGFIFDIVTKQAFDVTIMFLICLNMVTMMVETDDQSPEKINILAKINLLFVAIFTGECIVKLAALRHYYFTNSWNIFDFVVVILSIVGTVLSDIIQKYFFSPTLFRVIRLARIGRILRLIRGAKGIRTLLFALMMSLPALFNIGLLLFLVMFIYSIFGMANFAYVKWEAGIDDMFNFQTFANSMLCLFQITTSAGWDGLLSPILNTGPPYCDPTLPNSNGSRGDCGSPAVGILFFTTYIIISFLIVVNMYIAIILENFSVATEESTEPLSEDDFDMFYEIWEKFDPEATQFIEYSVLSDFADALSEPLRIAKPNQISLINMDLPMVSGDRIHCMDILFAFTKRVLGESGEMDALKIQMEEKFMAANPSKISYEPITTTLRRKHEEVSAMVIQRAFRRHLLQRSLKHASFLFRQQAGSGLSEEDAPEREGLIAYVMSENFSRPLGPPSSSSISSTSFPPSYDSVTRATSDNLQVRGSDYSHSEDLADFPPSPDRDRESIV
CLint scaled [2] [mL/min/kg],CLint scaled [3] [mL/min/kg],SMILES,IC50 [1] [nM],further results
–,–,"O=S(=O)(Nc1cccc(F)n1)c1cc(F)c(OC2CCN(CC(F)(F)F)CC2c2ccc(F)c(F)c2)cc1F (single isomer, unassigned; (+))",430,–
11,62,O=S(=O)(Nc1cccc(F)n1)c1cc(F)c(O[C@H]2CCN(CC(F)(F)F)C[C@@H]2c2ccc(F)cc2)cc1F (racemic),610,–
–,–,O=S(=O)(Nc1ccncn1)c1cc(F)c(O[C@H]2CCN(CC(F)(F)F)C[C@@H]2c2ccccc2)cc1F (racemic),> 30000,–
9,50,"O=S(=O)(Nc1cccc(F)n1)c1cc(F)c(OC2CCN(CC(F)(F)F)CC2c2ccc(F)c(F)c2)cc1F (single isomer, unassigned; (-)) [listing 1 of 2 here]",240,inhibition (INH) [4]: Not Active; inhibition (INH) [5]: Not Active; inhibition (INH) [6]: Not Active; inhibition (INH) [7]: Not Active; IC50 [8]: 6900 nM; clearance [9]: 1.8 mL/min/kg; half-life [10]: 4.3 h; Vd [11]: 0.6 L/kg; AUC [12]: 16 µM·h; Cmax [13]: 5.2 µM; half-life [14]: 4.1 h; AUC [15]: 72 µM·h; bioavailability [16]: 45%; Ki [17]: 2020 nM; concentration at 2 h [18]: 2.62 µM; concentration at 2 h [19]: 9.37 µM; Kp at 2 h [20]: 0.28; IC50 [21]: > 10000 nM
–,–,O=S(=O)(Nc1ccccn1)c1cc(F)c(O[C@H]2CCN(CC(F)(F)F)C[C@@H]2c2ccccc2)cc1F (racemic),4320,–
–,–,O=S(=O)(Nc1nncs1)c1cc(F)c(O[C@H]2CCN(CC(F)(F)F)C[C@@H]2c2ccccc2)cc1F (racemic),25100,–
–,–,O=S(=O)(Nc1ncns1)c1cc(F)c(O[C@H]2CCN(CC(F)(F)F)C[C@@H]2c2ccccc2)cc1F (racemic),7830,–
13,53,O=S(=O)(Nc1cccc(F)n1)c1cc(F)c(O[C@H]2CCN(CC(F)(F)F)C[C@@H]2c2cccc(F)c2)cc1F (racemic),460,–
13,49,O=S(=O)(Nc1cccc(F)n1)c1cc(F)c(O[C@H]2CCN(CC(F)(F)F)C[C@@H]2c2ccc(F)cc2F)cc1F (racemic),470,–
8.4,63,O=S(=O)(Nc1cccc(F)n1)c1cnc(O[C@H]2CCN(CC(F)(F)F)C[C@@H]2c2ccc(F)c(F)c2)c(F)c1 (racemic),1550,–
–,–,O=S(=O)(Nc1cc(F)ccn1)c1cc(F)c(O[C@H]2CCN(CC(F)(F)F)C[C@@H]2c2ccccc2)cc1F (racemic),1290,–
–,–,O=S(=O)(Nc1cscn1)c1cc(F)c(O[C@H]2CCN(CC(F)(F)F)C[C@@H]2c2ccccc2)cc1F (racemic),1180,IC50 [22]: 1170 nM
–,–,N#Cc1cccc([C@H]2CN(CC(F)(F)F)CC[C@@H]2Oc2cc(F)c(S(=O)(=O)Nc3cccc(F)n3)cc2F)c1 (racemic),4580,–
15,65,O=S(=O)(Nc1cccc(F)n1)c1cc(F)c(O[C@H]2CCN(CC(F)(F)F)C[C@@H]2c2ccc(F)c(F)c2)c(F)c1 (racemic),65,–
–,–,O=S(=O)(Nc1cccc(C(F)(F)F)n1)c1cc(F)c(O[C@H]2CCN(CC(F)(F)F)C[C@@H]2c2ccccc2)cc1F (racemic),6330,–
–,–,O=S(=O)(Nc1ncc(F)s1)c1cc(F)c(O[C@H]2CCN(CC(F)(F)F)C[C@@H]2c2ccccc2)cc1F (racemic),4650,–
7.5,49,O=S(=O)(Nc1cccc(F)n1)c1cc(F)c(O[C@H]2CCN(CC(F)(F)F)C[C@@H]2c2ccc(F)c(F)c2)cc1F (racemic),260,–
–,–,O=S(=O)(Nc1cccc(F)n1)c1cc(F)c(O[C@H]2CCN(CC(F)(F)F)C[C@@H]2c2ccc(F)c(F)c2)c(F)c1 (stereo in doubt; (+)-6),170,–
–,–,O=S(=O)(Nc1cccc(Cl)n1)c1cc(F)c(O[C@H]2CCN(CC(F)(F)F)C[C@@H]2c2ccccc2)cc1F (racemic),1100,–
–,–,O=S(=O)(Nc1ncccc1F)c1cc(F)c(O[C@H]2CCN(CC(F)(F)F)C[C@@H]2c2ccccc2)cc1F (racemic),5040,–
–,–,O=S(=O)(Nc1cccc(F)n1)c1cc(F)c(O[C@H]2CCN(CC(F)(F)F)C[C@@H]2c2ccc(F)c(F)c2)c(F)c1 (stereo in doubt; (-)-6),–,inhibition [23]: inactive; inhibition [24]: inactive; inhibition [25]: inactive; inhibition [26]: inactive; inhibition [27]: inactive; inhibition [28]: inactive; inhibition [29]: inactive; inhibition [30]: inactive; inhibition [31]: inactive; inhibition [32]: inactive; inhibition [33]: inactive; inhibition [34]: inactive; Ratio IC50 [35]: 1.1; Activity [36]: inactive; Ratio IC50 [37]: 16; Ratio IC50 [38]: 7; Ratio IC50 [39]: 6; Activity [40]: inactive
–,–,O=S(=O)(Nc1cccnn1)c1cc(F)c(O[C@H]2CCN(CC(F)(F)F)C[C@@H]2c2ccccc2)cc1F (racemic),25500,–
17,71,O=S(=O)(Nc1cccc(F)n1)c1cc(F)c(O[C@H]2CCN(CC(F)(F)F)C[C@@H]2c2ccccc2F)cc1F (racemic),680,–
–,–,CS(=O)(=O)c1cccc([C@H]2CN(CC(F)(F)F)CC[C@@H]2Oc2cc(F)c(S(=O)(=O)Nc3cccc(F)n3)cc2F)c1 (racemic),> 30000,–
–,–,O=S(=O)(Nc1ncccn1)c1cc(F)c(O[C@H]2CCN(CC(F)(F)F)C[C@@H]2c2ccccc2)cc1F (racemic),7140,–
–,–,O=S(=O)(Nc1ccc(F)cn1)c1cc(F)c(O[C@H]2CCN(CC(F)(F)F)C[C@@H]2c2ccccc2)cc1F (racemic),13200,–
–,–,"O=S(=O)(Nc1cccc(F)n1)c1cc(F)c(OC2CCN(CC(F)(F)F)CC2c2ccc(F)c(F)c2)cc1F (single isomer, unassigned; (-)) [listing 2 of 2 here]",–,Ratio IC50 [41]: > 40
16,70,O=S(=O)(Nc1cccc(F)n1)c1cc(F)c(O[C@H]2CCN(CC(F)(F)F)C[C@@H]2c2ccccc2)cc1F (racemic),700,IC50 [22]: 570 nM; IC50 [42]: 1290 nM; IC50 [43]: 810 nM; IC50 [44]: 820 nM; IC50 [45]: 1210 nM; IC50 [46]: 410 nM
14,65,O=S(=O)(Nc1cccc(F)n1)c1cc(F)c(O[C@H]2CCN(CC(F)(F)F)C[C@@H]2c2ccc(F)c(F)c2)c(F)c1F (racemic),31,–
14,70,O=S(=O)(Nc1cscn1)c1cc(F)c(O[C@H]2CCN(CC(F)(F)F)C[C@@H]2c2ccc(F)c(F)c2)cc1F (racemic),750,–
